# How the values were obtained:
# m-Calpain = biological target: T1, m-Calpain (Rattus norvegicus, UniProt Q07009); assay: Inhibitory activity against calpain (m-Calpain purified from brains of rats); type: biochemical
# T1 construct: m-Calpain was purified from brains of rats; from tissue; host or cells: rat brain
# T1 sequence (Q07009 20-700 limits assumed): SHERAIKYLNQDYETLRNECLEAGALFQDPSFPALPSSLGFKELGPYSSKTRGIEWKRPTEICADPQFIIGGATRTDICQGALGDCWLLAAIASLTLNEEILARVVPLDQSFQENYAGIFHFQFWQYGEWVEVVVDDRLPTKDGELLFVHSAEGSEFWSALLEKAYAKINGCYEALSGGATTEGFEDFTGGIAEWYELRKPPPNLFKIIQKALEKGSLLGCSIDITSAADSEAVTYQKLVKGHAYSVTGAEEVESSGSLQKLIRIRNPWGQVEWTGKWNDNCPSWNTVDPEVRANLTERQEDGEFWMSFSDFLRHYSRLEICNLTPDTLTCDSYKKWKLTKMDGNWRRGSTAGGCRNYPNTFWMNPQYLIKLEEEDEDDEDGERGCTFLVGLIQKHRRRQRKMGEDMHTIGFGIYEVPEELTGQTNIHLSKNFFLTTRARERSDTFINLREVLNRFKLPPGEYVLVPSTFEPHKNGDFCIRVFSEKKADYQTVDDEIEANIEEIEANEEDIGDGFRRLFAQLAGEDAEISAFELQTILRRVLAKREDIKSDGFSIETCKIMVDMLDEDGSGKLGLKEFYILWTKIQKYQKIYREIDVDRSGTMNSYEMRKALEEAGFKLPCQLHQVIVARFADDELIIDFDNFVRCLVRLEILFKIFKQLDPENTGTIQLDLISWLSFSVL
# T1 sequence (Q64537 1-270 partner): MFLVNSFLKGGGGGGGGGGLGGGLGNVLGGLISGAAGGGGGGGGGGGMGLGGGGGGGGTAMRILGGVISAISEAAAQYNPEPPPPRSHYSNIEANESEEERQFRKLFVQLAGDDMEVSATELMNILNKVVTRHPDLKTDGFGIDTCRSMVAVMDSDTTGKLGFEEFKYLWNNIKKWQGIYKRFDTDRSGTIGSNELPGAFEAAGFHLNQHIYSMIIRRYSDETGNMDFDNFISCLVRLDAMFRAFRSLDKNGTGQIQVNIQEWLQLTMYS
# Experimental: m-Calpain was purified from brains of rats according to a method described in a literature (Journal of Biological Chemistry, Vol. 259, p. 3210, 1984), and the inhibitory activity was determined in a manner according to a published method (Journal of Biological Chemistry, Vol. 259, p. 12489, 1984).
# [1] = biological target: T2, cathepsin B (Sigma, C-6286) (Bos taurus, UniProt P07688); assay: Inhibitory activity against cathepsin B; type: biochemical; conditions: Inhibitory activity against cathepsin B (Table-5)
# T2 construct: purchased Sigma C-6286
# Experimental: Inhibitory activity against cathepsin B (Sigma, C-6286) was determined according to a method described in a literature (Biochemical Journal, Vol. 201, p. 189, 1982).
# [2] = Inhibitory activity against calpain (Table-6)
# [3] = Inhibitory activity against calpain (continuation of Table-6)
Structure (SMILES),IC50 (m-Calpain; [2]) [nM],IC50 [1] [nM],IC50 (m-Calpain; [3]) [nM]
"CC(C)C[C@H](NC(=O)OCc1ccccc1)C(=O)N[C@H]1CCOC1O (stereo partly drawn) [Example 13, (3S)-3-((S)-2-benzyloxycarbonylamino-4-methylvalerylamino)-2-tetrahydrofuranol]",660,380,
"CC(C)C[C@H](NC(=O)OCc1ccc(F)cc1)C(=O)N[C@H]1CCOC1O (stereo partly drawn) [Example 15, (3S)-3-{(S)-2-(4-fluorobenzyloxycarbonylamino)-4-methylvalerylamino}-2-tetrahydrofuranol]",680,700,
"CC(C)C[C@H](NC(=O)OCc1ccc(Cl)cc1)C(=O)N[C@H]1CCOC1O (stereo partly drawn) [Example 17, (3S)-3-{(S)-2-(4-chlorobenzyloxycarbonylamino)-4-methylvalerylamino}-2-tetrahydrofuranol]",390,640,
"Cc1ccccc1COC(=O)N[C@@H](CC(C)C)C(=O)N[C@H]1CCOC1O (stereo partly drawn) [Example 18, (3S)-3-{(S)-4-methyl-2-(2-methylbenzyloxycarbonylamino)valerylamino}-2-tetrahydrofuranol]",440,580,
"Cc1ccc(COC(=O)N[C@@H](CC(C)C)C(=O)N[C@H]2CCOC2O)cc1 (stereo partly drawn) [Example 19, (3S)-3-{(S)-4-methyl-2-(4-methylbenzyloxycarbonylamino)valerylamino}-2-tetrahydrofuranol]",480,890,
"COc1ccccc1COC(=O)N[C@@H](CC(C)C)C(=O)N[C@H]1CCOC1O (stereo partly drawn) [Example 20, (3S)-3-{(S)-2-(2-methoxybenzyloxycarbonylamino)-4-methylvalerylamino)-2-tetrahydrofuranol]",560,1050,
"COc1ccc(COC(=O)N[C@@H](CC(C)C)C(=O)N[C@H]2CCOC2O)cc1 (stereo partly drawn) [Example 21, (3S)-3-{(S)-2-(4-methoxybenzyloxycarbonylamino)-4-methylvalerylamino}-2-tetrahydrofuranol]",340,1170,
"CC(C)C[C@H](NC(=O)OCC1CCCCO1)C(=O)N[C@H]1CCOC1O (stereo partly drawn) [Example 24, (3S)-3-{(S)-4-methyl-2-(2-tetrahydropyranylmethoxycarbonylamino)valerylamino}-2-tetrahydrofuranol]",1300,2900,
"CC(C)C[C@H](NC(=O)OCc1ccccn1)C(=O)N[C@H]1CCOC1O (stereo partly drawn) [Example 25, (3S)-3-{(S)-4-methyl-2-(2-pyridylmethoxycarbonylamino)valerylamino}-2-tetrahydrofuranol]",1050,2900,
"CC(C)C[C@H](NC(=O)OC1CCCCC1)C(=O)N[C@H]1CCOC1O (stereo partly drawn) [Example 27, (3S)-3-((S)-2-cyclohexyloxycarbonylamino-4-methylvalerylamino)-2-tetrahydrofuranol]",650,1200,
"CC(C)C[C@H](NC(=O)Oc1ccccc1)C(=O)N[C@H]1CCOC1O (stereo partly drawn) [Example 28, (3S)-3-((S)-4-methyl-2-phenoxycarbonylaminovalerylamino)-2-tetrahydrofuranol]",520,1700,
CC(C)C[C@H](NC(=O)COc1ccccc1)C(=O)N[C@H]1CCOC1O (some centres unmarked) [Example 34],330,1350,
"CC(C)C[C@H](NC(=O)c1ccccc1)C(=O)N[C@H]1CCOC1O (stereo partly drawn) [Example 39, (3S)-3-((S)-2-benzoylamino-4-methylvalerylamino)-2-tetrahydrofuranol]",370,200,
"CC(C)C[C@H](NC(=O)c1cccc(F)c1)C(=O)N[C@H]1CCOC1O (stereo partly drawn) [Example 41, (3S)-3-{(S)-2-(3-fluorobenzoylamino)-4-methylvalerylamino}-2-tetrahydrofuranol]",1150,870,
"CC(C)C[C@H](NC(=O)c1ccc(Cl)cc1)C(=O)N[C@H]1CCOC1O (stereo partly drawn) [Example 43, (3S)-3-{(S)-2-(4-chlorobenzoylamino)-4-methylvalerylamino}-2-tetrahydrofuranol]",360,140,
"COc1ccc(C(=O)N[C@@H](CC(C)C)C(=O)N[C@H]2CCOC2O)cc1 (stereo partly drawn) [Example 53, (3S)-3-{(S)-2-(4-methoxybenzoylamino)-4-methylvalerylamino}-2-tetrahydrofuranol]",670,150,
"CC(C)C[C@H](NC(=O)c1ccc2c(c1)OCO2)C(=O)N[C@H]1CCOC1O (stereo partly drawn) [Example 58, (3S)-3-{(S)-4-methyl-2-(3,4-methylenedioxybenzoylamino)valerylamino}-2-tetrahydrofuranol]",,460,440
"CC(C)C[C@H](NC(=O)c1cccc2ccccc12)C(=O)N[C@H]1CCOC1O (stereo partly drawn) [Example 59, (3S)-3-{(S)-4-methyl-2-(1-naphthoylamino)valerylamino}-2-tetrahydrofuranol]",,800,400

# Other lines, results leading:
IC50 (m-Calpain; [2]) [nM],IC50 [1] [nM],IC50 (m-Calpain; [3]) [nM],Structure (SMILES)
340,1000,,"CC(C)C[C@H](NC(=O)OCc1ccccc1Cl)C(=O)N[C@H]1CCOC1O (stereo partly drawn) [Example 16, (3S)-3-{(S)-2-(2-chlorobenzyloxycarbonylamino)-4-methylvalerylamino}-2-tetrahydrofuranol]"
110,950,,"CC(C)C[C@H](NC(=O)Cc1cccc2ccccc12)C(=O)N[C@H]1CCOC1O (stereo partly drawn) [Example 33, (3S)-3-{(S)-4-methyl-2-(1-naphthylacetylamino)valerylamino}-2-tetrahydrofuranol]"
820,550,,"CC(C)C[C@H](NC(=O)c1ccc(F)cc1)C(=O)N[C@H]1CCOC1O (stereo partly drawn) [Example 42, (3S)-3-{(S)-2-(4-fluorobenzoylamino)-4-methylvalerylamino}-2-tetrahydrofuranol]"
580,1450,,"Cc1ccccc1C(=O)N[C@@H](CC(C)C)C(=O)N[C@H]1CCOC1O (stereo partly drawn) [Example 44, (3S)-3-{(S)-4-methyl-2-(2-methylbenzoylamino)valerylamino}-2-tetrahydrofuranol]"
560,490,,"Cc1cccc(C(=O)N[C@@H](CC(C)C)C(=O)N[C@H]2CCOC2O)c1 (stereo partly drawn) [Example 45, (3S)-3-{(S)-4-methyl-2-(3-methylbenzoylamino)valerylamino}-2-tetrahydrofuranol]"
380,86,,"Cc1ccc(C(=O)N[C@@H](CC(C)C)C(=O)N[C@H]2CCOC2O)cc1C (stereo partly drawn) [Example 48, (3S)-3-{(S)-2-(3,4-dimethylbenzoylamino)-4-methylvalerylamino}-2-tetrahydrofuranol]"
650,200,,"CCc1ccc(C(=O)N[C@@H](CC(C)C)C(=O)N[C@H]2CCOC2O)cc1 (stereo partly drawn) [Example 50, (3S)-3-{(S)-2-(4-ethylbenzoylamino)-4-methylvalerylamino}-2-tetrahydrofuranol]"
480,210,,"CC(C)C[C@H](NC(=O)c1ccc(C(F)(F)F)cc1)C(=O)N[C@H]1CCOC1O (stereo partly drawn) [Example 51, (3S)-3-{(S)-4-methyl-2-(4-trifluoromethylbenzoylamino)valerylamino}-2-tetrahydrofuranol]"
840,1650,,"COc1cccc(OC)c1C(=O)N[C@@H](CC(C)C)C(=O)N[C@H]1CCOC1O (stereo partly drawn) [Example 55, (3S)-3-{(S)-2-(2,6-dimethoxybenzoylamino)-4-methylvalerylamino}-2-tetrahydrofuranol]"
640,900,,"COc1cc(OC)cc(C(=O)N[C@@H](CC(C)C)C(=O)N[C@H]2CCOC2O)c1 (stereo partly drawn) [Example 56, (3S)-3-{(S)-2-(3,5-dimethoxybenzoylamino)-4-methylvalerylamino}-2-tetrahydrofuranol]"
,240,250,"CCOc1ccc(C(=O)N[C@@H](CC(C)C)C(=O)N[C@H]2CCOC2O)cc1 (stereo partly drawn) [Example 57, (3S)-3-{(S)-2-(4-ethoxybenzoylamino)-4-methylvalerylamino}-2-tetrahydrofuranol]"
,34,470,"CC(C)C[C@H](NC(=O)c1ccc2ccccc2c1)C(=O)N[C@H]1CCOC1O (stereo partly drawn) [Example 60, (3S)-3-{(S)-4-methyl-2-(2-naphthoylamino)valerylamino}-2-tetrahydrofuranol]"
,1200,350,"CC(C)C[C@H](NC(=O)c1ccco1)C(=O)N[C@H]1CCOC1O (stereo partly drawn) [Example 61, (3S)-3-{(S)-2-(2-furoylamino)-4-methylvalerylamino}-2-tetrahydrofuranol]"

# Reference: patent EP0810221A1 (MITSUBISHI CHEMICAL CORPORATION, priority 1995, dated 1996)
